Reference: patent US6898533B1, “Methods for predicting the biological, chemical, and physical properties of molecules from their spectral properties” (The United States of America as represented by the …, priority 2000, dated 2005)

Assays:
estrogen receptor [1] = experiment: estrogen receptor relative binding affinity, expanded training set of 107 compounds; settings: input class, 107-compound training set
Description: The training set included weak estrogen receptor binders in addition to strong and medium estrogen receptor binders.
For this model, strong estrogen receptor binders were defined as having log(RBA)>−0.25 and weak estrogen receptor binders were defined as having log(RBA)<−3.0. Medium estrogen receptor binders were defined as having log(RBA) in between.

estrogen receptor [2] = settings: 107-compound training set; cited from earlier work
estrogen receptor [3] = experiment: estrogen receptor binding class of the 30-compound training set; settings: SDAR training input endpoint class, 30 compounds
Description: Two Spectral Data-Activity Relationship (SDAR) models were established, based on ^13C NMR and EI MS spectra, for 30 estrogenic chemicals whose relative binding affinities (RBA) for the alpha (ERα) and beta (ERβ) estrogen receptors are available.
Strong binders to the estrogen receptor were classified as having a log (RBA) over 0.0, and medium binders to the estrogen receptor were classified as having a log (RBA) of less than or equal to 0.0.

Compound: 4,4′-Methylenebis (N,N-dimethyl)
- Class (estrogen receptor [1]): W (weak estrogen receptor binders were defined as having log(RBA)<−3.0)

Compound: C(C=Cc1ccccc1)=Cc1ccccc1 [1,4-Diphenyl-1,3-butadiene]
- Class (estrogen receptor [1]): W (weak estrogen receptor binders were defined as having log(RBA)<−3.0)

Compound: OCCCCCCCCO [1,8-Octanediol]
- Class (estrogen receptor [1]): W (weak estrogen receptor binders were defined as having log(RBA)<−3.0)

Compound: COc1ccc(C(=O)c2ccccc2O)c(O)c1 [2,2′-Dihydroxy4-methoxybenzophene]
- Class (estrogen receptor [1]): W (weak estrogen receptor binders were defined as having log(RBA)<−3.0)

Compound: Oc1ccc(Cl)cc1Cc1cc(Cl)ccc1O [2,2′-Methylenebis (4-chlorophenol)]
- log RBA (estrogen receptor [2]): −2.45
- Class (estrogen receptor [1]): M (Medium estrogen receptor binders were defined as having log(RBA) in between)

Compound: O=C(O)COc1cc(Cl)c(Cl)cc1Cl [2,4,5-T]
- Class (estrogen receptor [1]): W (weak estrogen receptor binders were defined as having log(RBA)<−3.0)

Compound: O=C(c1ccccc1)c1ccc(O)cc1O [2,4-Dihydroxybenzophenone]
- log RBA (estrogen receptor [2]): −2.61
- Class (estrogen receptor [1]): W (weak estrogen receptor binders were defined as having log(RBA)<−3.0)

Compound: Oc1cccc(-c2ccccc2)c1 [3-Phenylphenol]
- log RBA (estrogen receptor [2]): −3.44

Compound: O=C(c1ccc(O)cc1)c1ccc(O)cc1 [4,4′-Dihydroxybenzophenone]
- log RBA (estrogen receptor [2]): −2.46
- Class (estrogen receptor [1]): M (Medium estrogen receptor binders were defined as having log(RBA) in between)

Compound: CC(C)(C)c1cc(Cc2cc(C(C)(C)C)c(O)c(C(C)(C)C)c2)cc(C(C)(C)C)c1O [4,4′-Methylene(2,6-ditertbutylphenol)]
- Class (estrogen receptor [1]): W (weak estrogen receptor binders were defined as having log(RBA)<−3.0)

Compound: O=S(=O)(c1ccc(O)cc1)c1ccc(O)cc1 [4,4′-Sulfonylphenol]
- log RBA (estrogen receptor [2]): −3.07
- Class (estrogen receptor [1]): W (weak estrogen receptor binders were defined as having log(RBA)<−3.0)

Compound: Oc1ccc(OCc2ccccc2)cc1 [4-Benzyloxyphenol]
- log RBA (estrogen receptor [2]): −3.44
- Class (estrogen receptor [1]): W (weak estrogen receptor binders were defined as having log(RBA)<−3.0)

Compound: Cc1cc(O)ccc1Cl [4-Chloro-3-methylphenol]
- log RBA (estrogen receptor [2]): −3.38

Compound: CCCCCCCCCc1ccc(O)cc1 [4-Nonylphenol]
- log RBA (estrogen receptor [2]): −1.45
- Class (estrogen receptor [1]): M (Medium estrogen receptor binders were defined as having log(RBA) in between)

Compound: CC/C(=C(\c1ccc(O)cc1)c1ccc(OCCN(C)C)cc1)c1ccccc1 [4-OH-Tamoxifen]
- log RBA (estrogen receptor [2]): 2.24
- Class (estrogen receptor [1]): S (strong estrogen receptor binders were defined as having log(RBA)>−0.25)

Compound: Oc1ccc(-c2ccccc2)cc1 [4-Phenylphenol]
- log RBA (estrogen receptor [2]): −3.04

Compound: CCC(C)(C)c1ccc(O)cc1 [4-tert-Amylphenol]
- log RBA (estrogen receptor [2]): −3.26

Compound: CC(C)(C)c1ccc(O)cc1 [4-tert-Butylphenol]
- log RBA (estrogen receptor [2]): −3.61

Compound: C[C@]12CC[C@@H]3c4ccc(O)cc4CC[C@H]3[C@@H]1CC[C@@H]2O [17β-Estradiol]
- Class (estrogen receptor [1]): S (strong estrogen receptor binders were defined as having log(RBA)>−0.25)

Compound: O=C1C=CC(=C(c2ccc(O)cc2)c2ccc(O)cc2)C=C1 [Aurin]
- log RBA (estrogen receptor [2]): −1.49
- Class (estrogen receptor [1]): M (Medium estrogen receptor binders were defined as having log(RBA) in between)

Compound: CCCCC(CC)COC(=O)c1ccccc1C(=O)OCC(CC)CCCC (centres unmarked) [BIS (2-ethylhexyl) phthalate]
- Class (estrogen receptor [1]): W (weak estrogen receptor binders were defined as having log(RBA)<−3.0)

Compound: Oc1ccccc1Cc1ccccc1O [BIS (2-hydroxyphenyl)-methane]
- Class (estrogen receptor [1]): W (weak estrogen receptor binders were defined as having log(RBA)<−3.0)

Compound: Oc1ccc(Cc2ccc(O)cc2)cc1 [BIS (4-hydroxyphenyl)-methane]
- log RBA (estrogen receptor [2]): −3.02
- Class (estrogen receptor [1]): W (weak estrogen receptor binders were defined as having log(RBA)<−3.0)

Compound: OCc1ccccc1 [Benzylalcohol]
- Class (estrogen receptor [1]): W (weak estrogen receptor binders were defined as having log(RBA)<−3.0)

Compound: CCC(C)(c1ccc(O)cc1)c1ccc(O)cc1 [Bisphenol B]
- log RBA (estrogen receptor [2]): −1.07
- Class (estrogen receptor [1]): M (Medium estrogen receptor binders were defined as having log(RBA) in between)

Compound: CCCCOC(=O)c1ccc(N)cc1 [Butyl-4-aminobenzoate]
- Class (estrogen receptor [1]): W (weak estrogen receptor binders were defined as having log(RBA)<−3.0)

Compound: CC(C)CCC[C@@H](C)[C@H]1CC[C@H]2[C@@H]3CC=C4C[C@@H](O)CC[C@]4(C)[C@H]3CC[C@]12C [Cholesterol]
- Class (estrogen receptor [1]): W (weak estrogen receptor binders were defined as having log(RBA)<−3.0)

Compound: CC12CCC(CC1)C(C)(C)O2 [Cineole]
- Class (estrogen receptor [1]): W (weak estrogen receptor binders were defined as having log(RBA)<−3.0)

Compound: O=C(O)C=Cc1ccccc1 [Cinnamic acid]
- Class (estrogen receptor [1]): W (weak estrogen receptor binders were defined as having log(RBA)<−3.0)

Compound: Oc1ccc(C=Cc2ccccc2)cc1 [Compound 4-Stilbenol, 4-Stilbenol]
- Class (estrogen receptor [1]): W (weak estrogen receptor binders were defined as having log(RBA)<−3.0)

Compound: C[C@]12C[C@H](O)[C@H]3[C@@H](CCC4=CC(=O)CC[C@@]43C)[C@@H]1CC[C@@H]2C(=O)CO [Corticosterone]
- Class (estrogen receptor [1]): W (weak estrogen receptor binders were defined as having log(RBA)<−3.0)

Compound: Clc1ccc(C(c2ccccc2Cl)C(Cl)Cl)cc1 (centres unmarked) [DDD-o,p′]
- Class (estrogen receptor [1]): W (weak estrogen receptor binders were defined as having log(RBA)<−3.0)

Compound: Clc1ccc(C(c2ccc(Cl)cc2)C(Cl)Cl)cc1 [DDD-p,p′]
- Class (estrogen receptor [1]): W (weak estrogen receptor binders were defined as having log(RBA)<−3.0)

Compound: ClC(Cl)=C(c1ccc(Cl)cc1)c1ccc(Cl)cc1 [DDE-p,p′]
- Class (estrogen receptor [1]): W (weak estrogen receptor binders were defined as having log(RBA)<−3.0)

Compound: Clc1ccc(C(c2ccccc2Cl)C(Cl)(Cl)Cl)cc1 (centres unmarked) [DDT-o,p′]
- log RBA (estrogen receptor [2]): −2.85
- Class (estrogen receptor [1]): W (weak estrogen receptor binders were defined as having log(RBA)<−3.0)

Compound: Clc1ccc(C(c2ccc(Cl)cc2)C(Cl)(Cl)Cl)cc1 [DDT-p,p′]
- Class (estrogen receptor [1]): W (weak estrogen receptor binders were defined as having log(RBA)<−3.0)

Compound: O=c1c(-c2ccc(O)cc2)coc2cc(O)ccc12 [Daidzein]
- Class (estrogen receptor [1]): M (Medium estrogen receptor binders were defined as having log(RBA) in between)

Compound: CCCCOC(=O)c1ccccc1C(=O)OCCCC [Dibutyl phthalate]
- Class (estrogen receptor [1]): W (weak estrogen receptor binders were defined as having log(RBA)<−3.0)

Compound: CCOC(=O)c1ccccc1C(=O)OCC [Diethyl phthalate]
- Class (estrogen receptor [1]): W (weak estrogen receptor binders were defined as having log(RBA)<−3.0)

Compound: CC(CCC(=O)O)(c1ccc(O)cc1)c1ccc(O)cc1 [Diphenolic acid]
- log RBA (estrogen receptor [2]): −3.13
- Class (estrogen receptor [1]): W (weak estrogen receptor binders were defined as having log(RBA)<−3.0)

Compound: NCCc1ccc(O)c(O)c1 [Dopamine]
- Class (estrogen receptor [1]): W (weak estrogen receptor binders were defined as having log(RBA)<−3.0)

Compound: C[C@]12CC[C@@H]3c4ccc(O)cc4[C@@H](O)C[C@H]3[C@@H]1CC[C@@H]2O [Estra-1,3,5(10)-trien-3,6α,17β-triol]
- log RBA (estrogen receptor [2]): −0.15
- Class (estrogen receptor [1]): S (strong estrogen receptor binders were defined as having log(RBA)>−0.25)

Compound: C[C@@]12CCC[C@H]1[C@@H]1CCc3cc(O)ccc3[C@H]1CC2 [Estra-1,3,5(10)-trien-3-ol]
- log RBA (estrogen receptor [2]): 1.14
- Class (estrogen receptor [1]): S (strong estrogen receptor binders were defined as having log(RBA)>−0.25)

Compound: CCOC(=O)C=Cc1ccccc1 [Ethylcinnamate]
- Class (estrogen receptor [1]): W (weak estrogen receptor binders were defined as having log(RBA)<−3.0)

Compound: C#C[C@]1(O)CC[C@H]2[C@@H]3CCc4cc(O)ccc4[C@H]3CC[C@@]21C [Ethynyl estradiol]
- Class (estrogen receptor [1]): S (strong estrogen receptor binders were defined as having log(RBA)>−0.25)

Compound: C[C@]12CCC(=O)C[C@H]1CC[C@@H]1[C@@H]2CC[C@]2(C)[C@@H](O)CC[C@@H]12 [Etiocholan-17β-ol-3-one]
- Class (estrogen receptor [1]): W (weak estrogen receptor binders were defined as having log(RBA)<−3.0)

Compound: C=CCc1ccc(O)c(OC)c1 [Eugenol]
- Class (estrogen receptor [1]): W (weak estrogen receptor binders were defined as having log(RBA)<−3.0)

Compound: O=c1c(-c2ccc(O)cc2)coc2cc(O)cc(O)c12 [Genistein]
- Class (estrogen receptor [1]): M (Medium estrogen receptor binders were defined as having log(RBA) in between)
- Class Input (estrogen receptor [3]): S (Strong binders to the estrogen receptor were classified as having a log (RBA) over 0.0)

Compound: CCCCCCC=O [Heptanal]
- Class (estrogen receptor [1]): W (weak estrogen receptor binders were defined as having log(RBA)<−3.0)

Compound: COc1ccc([C@@H]2CC(=O)c3c(O)cc(O)cc3O2)cc1O [Hesperetin]
- Class (estrogen receptor [1]): W (weak estrogen receptor binders were defined as having log(RBA)<−3.0)

Compound: CCCCCCO [Hexylalcohol]
- Class (estrogen receptor [1]): W (weak estrogen receptor binders were defined as having log(RBA)<−3.0)

Compound: CC=Cc1ccc(O)c(OC)c1 [Isoeugenol]
- Class (estrogen receptor [1]): W (weak estrogen receptor binders were defined as having log(RBA)<−3.0)

Compound: COc1ccc2[nH]cc(CCNC(C)=O)c2c1 [Melatonin]
- Class (estrogen receptor [1]): W (weak estrogen receptor binders were defined as having log(RBA)<−3.0)

Compound: C#C[C@]1(O)CC[C@H]2[C@@H]3CCc4cc(OC)ccc4[C@H]3CC[C@@]21C [Mestranol]
- RBA (estrogen receptor [2]): 035
- Class (estrogen receptor [1]): S (strong estrogen receptor binders were defined as having log(RBA)>−0.25)

Compound: C(=C(c1ccccc1)c1ccccc1)c1ccccc1 [Triphenylethylene]
- log RBA (estrogen receptor [2]): −2.78
- Class (estrogen receptor [1]): W (weak estrogen receptor binders were defined as having log(RBA)<−3.0)

Compound: O=P(Oc1ccccc1)(Oc1ccccc1)Oc1ccccc1 [Triphenylphosphate]
- Class (estrogen receptor [1]): W (weak estrogen receptor binders were defined as having log(RBA)<−3.0)

Compound: COc1cc(C=O)ccc1O [Vanillin]
- Class (estrogen receptor [1]): W (weak estrogen receptor binders were defined as having log(RBA)<−3.0)
